Measurements from the NIST ThermoML archive (doi:10.1021/je800231f).
“And” between values parts separate entries of the source, which are not always exact repeats. Equal values may be shown once. Numbers after ± are expanded uncertainties.

Settings: Crystal

SMILES: [F][Hg].[F][Hg] [mercury fluoride (Hg2F2)]
- vapor or sublimation pressure (496 K): 2.3e-05 ± 4e-06 kPa
- vapor or sublimation pressure (503 K): 3.4e-05 ± 5e-06 kPa
- vapor or sublimation pressure (508 K): 5.8e-05 ± 9e-06 kPa
- vapor or sublimation pressure (509 K): 4.6e-05 ± 7e-06 kPa
- vapor or sublimation pressure (515 K): 7.9e-05 ± 1.2e-05 kPa
- vapor or sublimation pressure (516 K): 6.8e-05 ± 1e-05 kPa
- vapor or sublimation pressure (520 K): 0.000102 ± 1.5e-05 kPa
- vapor or sublimation pressure (524 K): 0.000138 ± 2.1e-05 kPa
- vapor or sublimation pressure (526 K): 0.000138 ± 2.1e-05 kPa
- vapor or sublimation pressure (531 K): 0.000204 ± 3.1e-05 kPa
- vapor or sublimation pressure (533 K): 0.000229 ± 3.4e-05 kPa
- vapor or sublimation pressure (536 K): 0.000288 ± 4.3e-05 kPa and 0.000214 ± 3.2e-05 kPa and 0.000229 ± 3.4e-05 kPa
- vapor or sublimation pressure (539 K): 0.000275 ± 4.1e-05 kPa
- vapor or sublimation pressure (542 K): 0.000389 ± 5.8e-05 kPa
- vapor or sublimation pressure (543 K): 0.000324 ± 4.9e-05 kPa
- vapor or sublimation pressure (544 K): 0.000407 ± 6.1e-05 kPa
- vapor or sublimation pressure (545 K): 0.000437 ± 6.6e-05 kPa
- vapor or sublimation pressure (546 K): 0.000501 ± 7.5e-05 kPa and 0.000363 ± 5.5e-05 kPa
- vapor or sublimation pressure (547 K): 0.000437 ± 6.6e-05 kPa
- vapor or sublimation pressure (548 K): 0.000501 ± 7.5e-05 kPa
- vapor or sublimation pressure (549 K): 0.000457 ± 6.9e-05 kPa
- vapor or sublimation pressure (552 K): 0.000589 ± 8.8e-05 kPa
- vapor or sublimation pressure (553 K): 0.00055 ± 8.3e-05 kPa
- vapor or sublimation pressure (554 K): 0.000871 ± 0.00013 kPa and 0.000646 ± 9.7e-05 kPa and 0.000575 ± 8.6e-05 kPa
- vapor or sublimation pressure (556 K): 0.000676 ± 0.0001 kPa
- vapor or sublimation pressure (557 K): 0.000794 ± 0.00012 kPa and 0.000724 ± 0.00011 kPa
- vapor or sublimation pressure (559 K): 0.000871 ± 0.00013 kPa and 0.000724 ± 0.00011 kPa and 0.000851 ± 0.00013 kPa
- vapor or sublimation pressure (560 K): 0.000794 ± 0.00012 kPa
- vapor or sublimation pressure (562 K): 0.001 ± 0.00015 kPa and 0.000912 ± 0.00014 kPa
- vapor or sublimation pressure (563 K): 0.001 ± 0.00015 kPa
- vapor or sublimation pressure (564 K): 0.001288 ± 0.00019 kPa and 0.001 ± 0.00015 kPa
- vapor or sublimation pressure (565 K): 0.001148 ± 0.00017 kPa and 0.001259 ± 0.00019 kPa
- vapor or sublimation pressure (567 K): 0.001259 ± 0.00019 kPa
- vapor or sublimation pressure (569 K): 0.00123 ± 0.00018 kPa
- vapor or sublimation pressure (571 K): 0.001585 ± 0.00024 kPa
- vapor or sublimation pressure (572 K): 0.001585 ± 0.00024 kPa and 0.001445 ± 0.00022 kPa
- vapor or sublimation pressure (573 K): 0.002138 ± 0.00032 kPa and 0.001549 ± 0.00023 kPa and 0.001349 ± 0.0002 kPa
- vapor or sublimation pressure (574 K): 0.001585 ± 0.00024 kPa
- vapor or sublimation pressure (576 K): 0.002042 ± 0.00031 kPa
- vapor or sublimation pressure (577 K): 0.002399 ± 0.00036 kPa
- vapor or sublimation pressure (578 K): 0.00195 ± 0.00029 kPa and 0.002089 ± 0.00031 kPa and 0.001905 ± 0.00029 kPa
- vapor or sublimation pressure (579 K): 0.002089 ± 0.00031 kPa
- vapor or sublimation pressure (580 K): 0.002089 ± 0.00031 kPa
- vapor or sublimation pressure (582 K): 0.003162 ± 0.00047 kPa
- vapor or sublimation pressure (583 K): 0.002089 ± 0.00031 kPa
- vapor or sublimation pressure (584 K): 0.003236 ± 0.00049 kPa and 0.002512 ± 0.00038 kPa
- vapor or sublimation pressure (585 K): 0.002692 ± 0.0004 kPa and 0.002818 ± 0.00042 kPa
- vapor or sublimation pressure (586 K): 0.002884 ± 0.00043 kPa
- vapor or sublimation pressure (588 K): 0.003236 ± 0.00049 kPa and 0.003162 ± 0.00047 kPa
- vapor or sublimation pressure (589 K): 0.00309 ± 0.00046 kPa
- vapor or sublimation pressure (590 K): 0.003548 ± 0.00053 kPa
- vapor or sublimation pressure (591 K): 0.004571 ± 0.00069 kPa
- vapor or sublimation pressure (592 K): 0.004467 ± 0.00067 kPa
- vapor or sublimation pressure (593 K): 0.003631 ± 0.00055 kPa
- vapor or sublimation pressure (594 K): 0.004467 ± 0.00067 kPa
- vapor or sublimation pressure (595 K): 0.004365 ± 0.00065 kPa
- vapor or sublimation pressure (596 K): 0.004571 ± 0.00069 kPa and 0.004365 ± 0.00065 kPa
- vapor or sublimation pressure (599 K): 0.006026 ± 0.0009 kPa and 0.004786 ± 0.00072 kPa
- vapor or sublimation pressure (600 K): 0.006918 ± 0.001 kPa and 0.00537 ± 0.00081 kPa
- vapor or sublimation pressure (601 K): 0.005754 ± 0.00086 kPa
- vapor or sublimation pressure (605 K): 0.007762 ± 0.0012 kPa and 0.006457 ± 0.00097 kPa and 0.006761 ± 0.001 kPa
- vapor or sublimation pressure (606 K): 0.006918 ± 0.001 kPa [middle of 4 runs]
- vapor or sublimation pressure (609 K): 0.00955 ± 0.0014 kPa
- vapor or sublimation pressure (611 K): 0.008128 ± 0.0012 kPa and 0.00955 ± 0.0014 kPa and 0.007413 ± 0.0011 kPa
- vapor or sublimation pressure (614 K): 0.01 ± 0.0015 kPa and 0.00871 ± 0.0013 kPa
- vapor or sublimation pressure (615 K): 0.01 ± 0.0015 kPa
- vapor or sublimation pressure (616 K): 0.01259 ± 0.0019 kPa and 0.01072 ± 0.0016 kPa and 0.01097 ± 0.0016 kPa
- vapor or sublimation pressure (617 K): 0.01148 ± 0.0017 kPa
- vapor or sublimation pressure (618 K): 0.0123 ± 0.0018 kPa
- vapor or sublimation pressure (619 K): 0.01023 ± 0.0015 kPa
- vapor or sublimation pressure (622 K): 0.0138 ± 0.0021 kPa and 0.0123 ± 0.0018 kPa
- vapor or sublimation pressure (623 K): 0.01514 ± 0.0023 kPa
- vapor or sublimation pressure (624 K): 0.01738 ± 0.0026 kPa
- vapor or sublimation pressure (625 K): 0.01862 ± 0.0028 kPa
- vapor or sublimation pressure (626 K): 0.0138 ± 0.0021 kPa
- vapor or sublimation pressure (628 K): 0.01549 ± 0.0023 kPa
- vapor or sublimation pressure (629 K): 0.0195 ± 0.0029 kPa

SMILES: [F-].[F-].[Hg+2] [mercuric difluoride]
- vapor or sublimation pressure (457 K): 0.00015 ± 2e-05 kPa
- vapor or sublimation pressure (464 K): 0.00018 ± 3e-05 kPa
- vapor or sublimation pressure (466 K): 0.00024 ± 4e-05 kPa
- vapor or sublimation pressure (469 K): 0.0003 ± 5e-05 kPa
- vapor or sublimation pressure (473 K): 0.00024 ± 4e-05 kPa
- vapor or sublimation pressure (474 K): 0.00042 ± 6e-05 kPa
- vapor or sublimation pressure (475 K): 0.00036 ± 5e-05 kPa
- vapor or sublimation pressure (480 K): 0.00048 ± 7e-05 kPa
- vapor or sublimation pressure (481 K): 0.00066 ± 0.0001 kPa and 0.00042 ± 6e-05 kPa
- vapor or sublimation pressure (483 K): 0.00051 ± 8e-05 kPa and 0.00054 ± 8e-05 kPa
- vapor or sublimation pressure (487 K): 0.0006 ± 9e-05 kPa
- vapor or sublimation pressure (488 K): 0.00089 ± 0.00013 kPa
- vapor or sublimation pressure (490 K): 0.00076 ± 0.00011 kPa and 0.00078 ± 0.00012 kPa
- vapor or sublimation pressure (492 K): 0.00078 ± 0.00012 kPa
- vapor or sublimation pressure (493 K): 0.00091 ± 0.00014 kPa
- vapor or sublimation pressure (494 K): 0.00089 ± 0.00013 kPa
- vapor or sublimation pressure (496 K): 0.00115 ± 0.00017 kPa and 0.00095 ± 0.00014 kPa and 0.00107 ± 0.00016 kPa
- vapor or sublimation pressure (498 K): 0.00135 ± 0.0002 kPa and 0.00107 ± 0.00016 kPa
- vapor or sublimation pressure (499 K): 0.00112 ± 0.00017 kPa
- vapor or sublimation pressure (502 K): 0.00162 ± 0.00024 kPa and 0.00132 ± 0.0002 kPa
- vapor or sublimation pressure (503 K): 0.00151 ± 0.00023 kPa
- vapor or sublimation pressure (504 K): 0.00178 ± 0.00027 kPa
- vapor or sublimation pressure (505 K): 0.00174 ± 0.00026 kPa
- vapor or sublimation pressure (507 K): 0.00162 ± 0.00024 kPa and 0.00186 ± 0.00028 kPa
- vapor or sublimation pressure (510 K): 0.00209 ± 0.00031 kPa
- vapor or sublimation pressure (511 K): 0.00245 ± 0.00037 kPa
- vapor or sublimation pressure (512 K): 0.00224 ± 0.00034 kPa
- vapor or sublimation pressure (513 K): 0.00288 ± 0.00043 kPa and 0.00245 ± 0.00037 kPa
- vapor or sublimation pressure (514 K): 0.00229 ± 0.00034 kPa
- vapor or sublimation pressure (515 K): 0.00257 ± 0.00039 kPa
- vapor or sublimation pressure (516 K): 0.00347 ± 0.00052 kPa
- vapor or sublimation pressure (518 K): 0.00363 ± 0.00054 kPa
- vapor or sublimation pressure (520 K): 0.00324 ± 0.00049 kPa
- vapor or sublimation pressure (521 K): 0.00398 ± 0.0006 kPa and 0.00339 ± 0.00051 kPa
- vapor or sublimation pressure (523 K): 0.00331 ± 0.0005 kPa
- vapor or sublimation pressure (525 K): 0.00437 ± 0.00066 kPa and 0.00363 ± 0.00054 kPa
- vapor or sublimation pressure (526 K): 0.00479 ± 0.00072 kPa
- vapor or sublimation pressure (527 K): 0.00437 ± 0.00066 kPa and 0.00457 ± 0.00069 kPa
- vapor or sublimation pressure (528 K): 0.00457 ± 0.00069 kPa
- vapor or sublimation pressure (529 K): 0.0055 ± 0.00083 kPa
- vapor or sublimation pressure (533 K): 0.00575 ± 0.00086 kPa
- vapor or sublimation pressure (535 K): 0.00759 ± 0.0011 kPa and 0.00617 ± 0.00093 kPa
- vapor or sublimation pressure (537 K): 0.00759 ± 0.0011 kPa
- vapor or sublimation pressure (539 K): 0.00646 ± 0.00097 kPa
- vapor or sublimation pressure (542 K): 0.00871 ± 0.0013 kPa
- vapor or sublimation pressure (543 K): 0.01047 ± 0.0016 kPa and 0.00871 ± 0.0013 kPa
- vapor or sublimation pressure (544 K): 0.01072 ± 0.0016 kPa
- vapor or sublimation pressure (549 K): 0.00933 ± 0.0014 kPa
- vapor or sublimation pressure (551 K): 0.01318 ± 0.002 kPa and 0.01175 ± 0.0018 kPa
- vapor or sublimation pressure (552 K): 0.01445 ± 0.0022 kPa
- vapor or sublimation pressure (555 K): 0.0138 ± 0.0021 kPa
- vapor or sublimation pressure (557 K): 0.0166 ± 0.0025 kPa and 0.01318 ± 0.002 kPa
- vapor or sublimation pressure (560 K): 0.01862 ± 0.0028 kPa and 0.01698 ± 0.0026 kPa
- vapor or sublimation pressure (561 K): 0.01622 ± 0.0024 kPa
- vapor or sublimation pressure (565 K): 0.02188 ± 0.0033 kPa
- vapor or sublimation pressure (568 K): 0.02455 ± 0.0037 kPa
- vapor or sublimation pressure (570 K): 0.02042 ± 0.0031 kPa
- vapor or sublimation pressure (580 K): 0.02951 ± 0.0044 kPa
- vapor or sublimation pressure (589 K): 0.04074 ± 0.0061 kPa
